Laboratory results: the supplement of paper PMC12205070

Columns and labels:
Test in all cases: normalised number of viable cells after treatment (fraction of control); higher = more viable cells (less drug effect)
P10 Relapse = test system: P10 Relapse (T-ALL xenograft cells from relapse)
Method: (§1)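 T-ALL PDX-derived cells (initial diagnosis or relapse samples of individual patients) co-cultured on hTERT-immortalized bone marrow MSCs in 384-well plates were treated with Cytarabine, Venetoclax, S-63845, A1331852 or FX1 (0.1 nM to 10,000 nM) for 72 h.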

P10 Initial = test system: P10 Initial (T-ALL xenograft cells from diagnosis)
Method: as §1

P6 Initial = test system: P6 Initial (T-ALL xenograft cells from diagnosis)
Method: as §1

P2 Relapse = test system: P2 Relapse (T-ALL xenograft cells from relapse)
Method: as §1

P6 Relapse = test system: P6 Relapse (T-ALL xenograft cells from relapse)
Method: as §1

P12 Initial = test system: P12 Initial (T-ALL xenograft cells from diagnosis)
Method: as §1

P8 Initial = test system: P8 Initial (T-ALL xenograft cells from diagnosis)
Method: as §1

P1 Initial = test system: P1 Initial (T-ALL xenograft cells from diagnosis)
Method: as §1

P8 Relapse = test system: P8 Relapse (T-ALL xenograft cells from relapse)
Method: as §1

P1 Relapse = test system: P1 Relapse (T-ALL xenograft cells from relapse)
Method: as §1

P12 Relapse = test system: P12 Relapse (T-ALL xenograft cells from relapse)
Method: as §1

P2 Initial = test system: P2 Initial (T-ALL xenograft cells from diagnosis)
Method: as §1

Cc1c(-c2c(-c3ccc(F)o3)sc3ncnc(O[C@H](Cc4ccccc4OCc4ccnn4CC(F)(F)F)C(=O)O)c23)ccc(OCCN2CCN(C)CC2)c1Cl
normalised number of viable cells
Conditions | 0.125 nM | 0.13 nM | 1 nM | 1.25 nM | 12.5 nM | 31.25 nM | 100 nM | 625 nM | 1250 nM | 10000 nM
P1 Initial | 1.16 | – | 1.05 | – | 0.838 | – | 0.231 | – | 0.054 | 0.0485
P1 Relapse | – | 1.26 | – | 1.15 | – | 0.987 | – | 0.131 | – | 0.039
P2 Initial | – | 0.99 | – | 0.918 | – | 0.86 | – | 0.197 | – | 0.129
P2 Relapse | – | 1.05 | – | 1.04 | – | 0.878 | – | 0.7035 | – | 0.068
P6 Initial | – | 1.02 | – | 1.08 | – | 0.638 | – | 0.0605 | – | 0.022
P6 Relapse | – | 1.07 | – | 0.884 | – | 1.02 | – | 0.483 | – | 0.035
P8 Initial | – | 1.09 | – | 1.08 | – | 1.04 | – | 0.54 | – | 0.0315
P8 Relapse | – | 0.992 | – | 1.05 | – | 1.02 | – | 0.9355 | – | 0.0655
P10 Initial | – | 1.29 | – | 1.17 | – | 0.639 | – | 0.225 | – | 0.0835
P10 Relapse | – | 1.02 | – | 1.15 | – | 1.08 | – | 0.785 | – | 0.0695
P12 Initial | – | 1.05 | – | 0.991 | – | 0.58 | – | 0.337 | – | 0.0575
P12 Relapse | – | 0.277 | – | 1.52 | – | 0.199 | – | 0.048 | – | 0.0695

Cc1c(-c2ccc(N3CCc4cccc(C(=O)Nc5nc6ccccc6s5)c4C3)nc2C(=O)O)cnn1CC12CC3CC(CC(C3)C1)C2
normalised number of viable cells
Conditions | 0.125 nM | 0.13 nM | 1 nM | 1.25 nM | 12.5 nM | 31.25 nM | 100 nM | 625 nM | 1250 nM | 10000 nM
P1 Initial | 1.07 | – | 0.741 | – | 0.429 | – | 0.38 | – | 0.172 | 0.0585
P1 Relapse | – | 1.092 | – | 1 | – | 0.758 | – | 0.443 | – | 0.104
P2 Initial | – | 0.972 | – | 0.785 | – | 0.5015 | – | 0.407 | – | 0.2125
P2 Relapse | – | 0.839 | – | 0.588 | – | 0.115 | – | 0.0705 | – | 0.0555
P6 Initial | – | 0.809 | – | 0.331 | – | 0.037 | – | 0.023 | – | 0.0205
P6 Relapse | – | 0.953 | – | 0.907 | – | 0.827 | – | 0.883 | – | 0.834
P8 Initial | – | 1.17 | – | 0.883 | – | 0.704 | – | 0.673 | – | 0.4885
P8 Relapse | – | 0.838 | – | 0.861 | – | 0.721 | – | 0.515 | – | 0.321
P10 Initial | – | 0.894 | – | 0.32 | – | 0.163 | – | 0.0735 | – | 0.031
P10 Relapse | – | 0.98 | – | 0.69 | – | 0.547 | – | 0.341 | – | 0.149
P12 Initial | – | 0.976 | – | 0.093 | – | 0.151 | – | 0.084 | – | 0.054
P12 Relapse | – | 2.48 | – | 0.433 | – | 0.132 | – | 0.075 | – | 0.0555
